Experimental data as given in patent US5763474A, “Substituted N-arylmethylamino derivatives of cyclobutene-3,4-diones” (American Home Products Corporation, priority 1997, dated 1998).
Like-named read-outs stand apart in the source and are kept apart here.

Tests used:
[1] = system: Isolated Rat Bladder Strips; assay: Inhibition of Contractions in Isolated Rat Bladder Strips (15 mM KCl-enhanced contractile activity); parameters: species or system Sprague-Dawley rats; settings: for activity at 30 µM: read-out: Percent contraction at 30 μM (C); for inhibition at 30 µM: read-out: Percent inhibition at 30 μM (I)
Description: The smooth muscle relaxing activity of the compounds of this invention was established in accordance with standard pharmaceutically accepted test procedures with representative compounds as follows:
Sprague-Dawley rats (150-200 g) are rendered unconscious by CO2 asphyxiation and then euthanized by cervical dislocation. The bladder is removed into warm (37 deg.C.) physiological salt solution (PSS) of the following composition (mM): NaCl, 118.4; KCl, 4.7; CaCl2, 2.5; […]; NaHCO3, 24.9; KH2 PO4, 1.2; glucose, 11.1; EDTA, 0.023; gassed with […]; pH 7.4. The bladder is opened and then cut into strips 1-2 mm in width and 7-10 mm in length. The strips are subsequently suspended in a 10 mL tissue bath under an initial resting tension of 1.5 g. The strips are held in place by two surgical clips one of which is attached to a fixed hook while the other is attached to an isometric force transducer. […] The carbachol is then washed out and the tissue allowed to relax to its resting level of activity. Following a further 30 minute period of recovery an additional 15 mM KCl are introduced into the tissue bath. This increase in KCl concentration results in a large increase in the amplitude of spontaneous contractions (and initiation of contractions in previously quiescent strips) superimposed upon a small increase in basal tone. Following stabilization of this enhanced level of contractile activity, incremental increases in the concentration of test compound or vehicle are introduced into the tissue bath. Contractile activity is measured for each compound or vehicle concentration during the last minute of a 30 minute challenge.
The isometric force developed by the bladder strips is measured using a […]. The (IC50 concentration) is calculated from this concentration-response curve.

[2] = system: hypertrophied bladder (detrussor) smooth muscle in conscious female rats; assay: Inhibition of Spontaneous Contractions In Vivo in the hypertrophied rat bladder model (cystometry, conscious rats); parameters: species or system Female Sprague-Dawley rats
Procedure: In addition, we tested the ability of compounds to inhibit the hyperactivity of hypertrophied bladder (detrussor) smooth muscle in conscious female rats with hypertrophied bladders and thereby alleviate urinary incontinence in rats according to the following protocol described by Malmgren et al., J. Urol. 142:1134, 1989:
Female Sprague-Dawley rats, ranging in weight from 190-210 g are used. Up to 25 animals are prepared each time. After developemnt of bladder hypertrophy 4-8 animals are used per test.
Compounds are dissolved in PEG-200 and administered by gastric gavage or intraveneously in a volume of 5 ml/kg. For primary screening all drugs are administered at the arbitrary dose of 10 mg/kg p.o. to groups of 4 rats.
The animals are anesthetized with halothane. Through a midline incision the bladder and urethra are exposed and a ligature of 4-0 silk is tied around the proximal urethra in the presence of a stainless steel rod (1 mm diameter) to produce a partial occlusion. The rod is then removed. The abdominal region is closed using surgical staples and each rat receives 150,000 units of bicillin C-R. The animals are allowed six weeks to develop sufficient bladder hypertrophy. After six weeks, the ligature is removed under halothane anesthesia and a catheter (PE 60) with a cuff is placed in the dome of the bladder and secured with a purse string suture. The catheter is tunneled under the skin and exteriorized through an opening in the back of the neck. The abdominal incision is sutured and the free end of the catheter sealed. In order to prevent infections the rats receive an injection of bicillin C-R (150000 units/rat). Two days later the animals are used in cystometrical evaluations, The animals are placed in the metabolic cages and the catheter is attached (using a "T" connector) to a Statham pressure transducer (Model P23Db) and to a Harvard infusion pump. A plastic beaker attached to a force displacement transducer (Grass FTO3) is placed under the rat's cage to collect and record urine volume. Animals are allowed 15-30 minutes to rest before the saline infusion (20 ml/hr for 20 minutes) is started for the first cystometry period. Two hours after the first cystometry period, the rats are dosed with the vehicle or the test compound and one hour later a second cystometry is performed.
The following urodynamic variables are recorded:
The mean value of each variable is calculated before and after compound administration. For each compound the changes in the variables measured are compared to the values obtained before treatment and expressed as percent inhibition. The data are also subjected to 2-way analysis of variance to determine significant (p<0.05) changes in the variable measured. The most characteristic finding in this rat model is spontaneous bladder contractions which develop during filling.

[3] = 0.5 h, isolated rat bladder strips, 15 mM KCl, 30 minute challenge, read-out: IC50, inhibition of contractions in isolated rat bladder strips
[4] = 0.5 h, isolated rat bladder strips

`CC(Nc1c(NCc2ccc(Cl)cc2Cl)c(=O)c1=O)C(C)(C)C` (stereo not drawn) [Example 2, 3-(2,4-Dichlorobenzylamino)-4-(1,2,2-trimethylproylamino)-cyclobut-3-ene-1,2-dione] was tested. Which IC50 [1, 3] did it give?
Its IC50 is 2000 ± 1000 nM.

`Cc1cc(Cl)cc(Cl)c1CNc1c(N[C@H](C)C(C)(C)C)c(=O)c1=O` [Example 4, (R)-3-(2,4-dichloro-6-methyl-benzylamino)-4-(1,2,2-trimethyl-propylamino)-cyclobut-3-ene-1,2-dione] was tested. Which IC50 [1, 3] did it give?
Its IC50 is 9800 ± 5100 nM.

Which results are given for `CCC(C)(C)Nc1c(NCc2ccc(Cl)cc2Cl)c(=O)c1=O` [Example 6, 3-(2,4-Dichlorobenzylamino)-4-(1,1-dimethylpropylamino)-cyclobut-3-ene-1,2-dione]?
IC50 [1, 3]: 110 ± 2 nM; IC50 ([1]; Rattus norvegicus, prior lot of this compound, mp. 195-196° C., n = 4, read-out: IC50, prior lot): 210 ± 40 nM; % Red (F): percent reduction in the total number of spontaneous contractions ([2]; 1 mg/kg p.o., prior lot, mp. 195-196° C.): -40 ± 13%; % Red (F): percent reduction in the total number of spontaneous contractions ([2]; 3 mg/kg p.o., prior lot, mp. 195-196° C.): -58 ± 9%; % Red (F): percent reduction in the total number of spontaneous contractions ([2]; 10 mg/kg p.o., prior lot, mp. 195-196° C.): -68 ± 10%

How did the IC50 [1, 3] turn out when `CCC(C)(C)Nc1c(N(Cc2ccc(Cl)cc2Cl)C(C)=O)c(=O)c1=O` [Example 7, N-(2,4-dichloro-benzyl)-N-[2-(1,1-dimethyl-propylamino)-3,4-dioxo-cyclobut-1-enyl]-acetamide] was run?
The IC50 was 15800 ± 50 nM.

With `CCCC(=O)N(Cc1ccc(Cl)cc1Cl)c1c(NC(C)(C)CC)c(=O)c1=O` [Example 8, N-(2,4-dichloro-benzyl)-N-[2-(1,1-dimethyl-propylamino)-3,4-dioxo-cyclobut-1-enyl]-butyramide] as the compound, how does the activity at 30 µM [1, 4] read?
The activity at 30 µM was 82.8 ± 26%.

And the inhibition at 30 µM ([1]; isolated rat bladder strips)?
Its inhibition at 30 µM is 10.2%.

Which results are given for `CCC(C)(C)Nc1c(NCc2c(C)cc(Cl)cc2Cl)c(=O)c1=O` [Example 9, 3-(2,4-Dichloro-6-methyl-benzylamino)-4-(1,1-dimethyl-propylamino)-cyclobut-3-ene-1 2-dione]?
IC50 [1, 3]: 200 ± 60 nM; % Red (F): percent reduction in the total number of spontaneous contractions ([2]; 1 mg/kg p.o.): -63 ± 13%; % Red (F): percent reduction in the total number of spontaneous contractions ([2]; 3 mg/kg p.o.): -82 ± 5%

With `CC(C)(C)Nc1c(NCc2ccc(Cl)cc2Cl)c(=O)c1=O` [Example 11, 3-(t-Butylamino)-4-(2,4-dichlorobenzylamino) cyclobut-3-ene-1,2-dione] as the compound, how does the IC50 [1, 3] read?
Its IC50 is 1300 ± 600 nM.

With `Cc1cc(Cl)cc(Cl)c1CNc1c(NC(C)(C)C)c(=O)c1=O` [Example 12, 3-tert-butylamino-4-(2,4-dichloro-6-methyl-benzylamino)-cyclobut-3-ene-1,2-dione] as the compound, how does the IC50 [1, 3] read?
Its IC50 is 220 ± 80 nM.

And the “% Red (F): percent reduction in the total number of spontaneous contractions” value ([2]; 3 mg/kg p.o.)?
The value was -53 ± 18%.

For `CCC(CC)Nc1c(NCc2ccc(Cl)c(Cl)c2)c(=O)c1=O` [Example 14, 3-(3,4-Dichloro-benzylamino)-4-(1-ethyl-propylamino)-cyclobut-3-ene-1,2-dione], which inhibition at 30 µM ([1]; isolated rat bladder strips) is on record?
Its inhibition at 30 µM is 22 ± 5.9%.

`CCC(CC)Nc1c(NCc2ccc(Cl)cc2Cl)c(=O)c1=O` [Example 15, 3-(2,4-dichloro-benzylamino)-4-(1-ethyl-propylamino)-cyclobut-3-ene-1,2-dione] was tested. Which IC50 [1, 3] did it give?
The IC50 was 2000 ± 800 nM.

For `Cc1cc(Cl)cc(Cl)c1CNc1c(NCC(F)(F)C(F)(F)F)c(=O)c1=O` [Example 16], which IC50 [1, 3] is on record?
The IC50 was 9350 ± 460 nM.

And the inhibition at 30 µM ([1]; isolated rat bladder strips)?
Its inhibition at 30 µM is 36 ± 3.2%.

What does the source list for `CCCC(=O)N(Cc1c(C)cc(Cl)cc1Cl)c1c(NC(C)(C)CC)c(=O)c1=O` [Example 17, N-(2,4-Dichloro-6-methyl-benzyl)-N-[2-(1,1-dimethyl-2proplylamino)-3,4-dioxo-cyclobut-1-envl]-butyramide]?
activity at 30 µM [1, 4]: 245 ± 15%; % Red (F): percent reduction in the total number of spontaneous contractions ([2]; 10 mg/kg p.o.): -87 ± 2%

For `CCC(C)(C)Nc1c(N(Cc2c(C)cc(Cl)cc2Cl)C(C)=O)c(=O)c1=O` [Example 18, N-(2,4-Dichloro-6-methyl-benzyl)-N-[2-(1,1-dimethyl-propylamino)-3,4-dioxo-cyclobut-1-enyl]-acetamide], which inhibition at 30 µM ([1]; isolated rat bladder strips) is on record?
Its inhibition at 30 µM is 26 ± 13.8%.

With `CCC(=O)N(c1c(NCc2c(C)cc(Cl)cc2Cl)c(=O)c1=O)C(C)(C)C` [Example 19, N-(tert-butyl)-N-[2-(2,4-Dichloro-6-methyl-benzylamino)-3,4-dioxo-cylobut-1-enyl]-propionamide] as the compound, how does the activity at 30 µM [1, 4] read?
Its activity at 30 µM is 92.5 ± 44.2%.

Which IC50 [1, 3] does the source give for `Cc1cc(Cl)cc(Cl)c1CNc1c(NC(C)C(C)(C)F)c(=O)c1=O` (stereo not drawn) [Example 20, 3-(2,4-dichloro-6-methyl-benzylamino)-4-(1,2-dimethyl-2-fluoro-propylamino)-cyclobut-3-ene-1,2-dione] here?
Its IC50 is 2530 ± 190 nM.

With `CC(C)(CO)Nc1c(NCc2ccc(Cl)cc2Cl)c(=O)c1=O` [Example 22, 3-(2,4-Dichlorobenzylamino)-4-(2-hvdroxy-1,1-dimethylethylamino)-cyclobut-3-ene-1,2-dione] as the compound, how does the IC50 [1, 3] read?
The IC50 was 24000 ± 9300 nM.

How did the IC50 [1, 3] turn out when `C[C@@H](Nc1c(NCc2ccc(Cl)cc2Cl)c(=O)c1=O)C(C)(C)C` [Example 23, (R)-3-(2,4-dichlorobenzylamino)-4-(1,2,2-trimethylpropylamino)-cyclobut-3-ene-1,2-dione] was run?
Its IC50 is 340 ± 220 nM.

With `CC(C)(C)Nc1c(NCc2ccc(Cl)c(Cl)c2)c(=O)c1=O` [Example 24, 3-tert-Butylamino-4-(3,4-dichlorobenzylamino)-cyclobut-3-ene-1,2-dione] as the compound, how does the activity at 30 µM [1, 4] read?
Its activity at 30 µM is 30%.

What about the IC50 [1, 3] of the same compound?
The IC50 was 1480 ± 570 nM.

And the inhibition at 30 µM ([1]; isolated rat bladder strips)?
Its inhibition at 30 µM is 32.5 ± 3.1%.

What does the source list for `CCC(C)(C)Nc1c(NCc2ccc(Cl)c(Cl)c2)c(=O)c1=O` [Example 25]?
activity at 30 µM [1, 4]: 57.9 ± 4.2%; IC50 [1, 3]: 8900 ± 4000 nM

How did the IC50 [1, 3] turn out when `CCC(C)(C)Nc1c(N(Cc2c(C)cc(Cl)cc2Cl)C(=O)OC(C)(C)C)c(=O)c1=O` [Example 26, (2,4-Dichloro-6-methyl-benzyl)-[2-(1,1-dimethyl-propylamino)-3,4-dioxo-cyelobut-1-enyl]-carbamic acid tert-butyl ester] was run?
The IC50 was 4500 ± 4200 nM.
